Experimental data published in US11058700B2, “Macrocyclic lactones and uses thereof as modulators of purinergic receptors” (City of Hope, priority 2015, dated 2021).
Where a SMILES comes first, the peptide text is derived from it. The star is where a group is joined. Cbz = O=C(OCc1ccccc1)*; CH2F = FC*

Tests used:
Type in all cases: cell-based, mouse
4T1.2 shRNA (NT) = test: Synergy between Ivermectin and ATP (CI), non-targeting control cells
Procedure: (§1) FIGS. 5A-5E. CaMKII-independent P2X7-mediated killing. FIG. 5A: qPCR showing the extent of gene knockdown in 4T1.2 cells transfected with shRNA targeting the P2X7 receptor versus non-targeting (NT) control (left panel). […] One million wt, shRNA(NT) and shRNA(P2X7) 4T1.2 cells were plated and incubated for 48 h before evaluation of cell numbers and viability. FIG. 5B: P2X7 knockdown cells are more resistant to ATP and the ATP/IVM combo. 4T1.2 cells were treated for 24 h with 1-3 mM ATP, 6-10 μM Ivermectin, or combinations of ATP and Ivermectin. P2X7 knockdown suppresses the synergy between Ivermectin and high dose ATP, as shown by calculation of combination index (CI) values, see Table 2. FIG. 5C: P2X7 knockdown cells are resistant to ATP/Ivermectin induced membrane permeabilization (Asterisk (*) indicates p<0.05). […] FIG. 5E: Comparison of the protective effects of P2X7, CaMKII, and NADPH oxidases inhibition in short-term (4 h, 32 μM IVM) and long-term (24 h, 12 μM IVM) exposure of 4T1.2 cells to Ivermectin. Asterisk (*) indicates p<0.05 relative to Ivermectin alone controls.
(§2) Cell viability. Cancer cells were plated on 96 well flat-bottom plates and allowed to attach overnight. Cells were then pre-incubated with drugs for 1 h and treated with Ivermectin for 4 h. In the case of 24 h and 48 h incubations the cells, Ivermectin and drugs were plated together. All treatments and controls were done in triplicate wells and results were validated in at least two independent experiments. Following treatment the plates were washed once with PBS and cell viability was measured using the acid phosphatase assay. Briefly, cells were incubated for 1h at 37° C. in 100 μL assay buffer (0.16 M sodium acetate, 0.1% Triton-X-100, supplemented with 4-Nitrophenyl phosphate disodium salt hexahydrate, Sigma Aldrich, at 0.00263 g/ml). Reaction was stopped using 10 μL of 1N sodium hydroxide. Absorption at 405 nm was measured within 10 min using a multi-well plate reader. Mode of cell death and viability of cells in suspension was evaluated using flow cytometry. Briefly, cancer cells were pre-incubated with drugs for 30 min to 1 h, as indicated, treated with Ivermectin for 4 h in 5 ml FACS tubes , washed twice in PBS and stained with PE-conjugated Annexin V and 7AAD (1 μl per 100 μl/200,000 cancer cells) for 15 min.
(§3) Generation of P2X7 receptor knockdown 4T1.2 cells. 4T1.2 cells were transduced using Sigma mission shRNA lentiviral transduction particle with four P2X7 shRNA (NM_011027/TRCN0000068568, NM_011027/TRCN0000068570, NM_011027/TRCN0000068571, NM_011027/TRCN0000068572) or Non-Target control (SHC002V). The viral particles were added to growing cells in the presence of […] POLYBRENE® (Sigma, St Louis, Mo.), and incubated overnight at 37° C. Puromycin selection (2000 ng/ml) was done from third day onwards to select for stably transformed cells.

4T1.2 shRNA (P2X7) = test: Synergy between Ivermectin and ATP (CI), P2X7 knockdown cells
Procedure: as §1, §2, §3

4T1.2 cells = test: Cell viability (acid phosphatase assay) of cancer cells treated with Ivermectin; settings: cells treated with Ivermectin (32 μM, 4 h in figure legends) in the presence of the agent
Procedure: as §2

4T1.2 cancer cells = test: Synergy between Ivermectin and ROS (CompuSyn CI); settings: 4T1.2, 24 h/48 h
Procedure: FIGS. 2A-2C. Role of NADPH oxidases-generated ROS. […] 4T1.2 cells were labeled with a ROS detection probe and treated for 1 h with 32 μM Ivermectin in the presence of 1 mM EDTA, 5mM NAC, 5 μM DPI, 2500 μunits/ml Apyrase, 3 mM ATP, and 10 μM KN-62. […] Triangles (▴) indicate significant antagonism CI>1.0. […] 4T1.2 cancer cells were irradiated (10-20 kRad) or treated with H2O2 (10-1000 μM), PTX (0.1-1 μM), or DOX (1-4 μM) and incubated with Ivermectin for 24 h/48 h. Circles (●) indicate significant synergy CI<1.0, see Table 1. Asterisk (*) indicates p<0.05 relative to untreated or Ivermectin alone controls, respectively.
as §2, with “All treatments and controls were done in triplicate wells and results were validated in at least two independent experiments.” left out

[1] = tested on: murine and human TNBC cells; test: Reactive oxygen species
Procedure: Reactive oxygen and nitrogen species. Cancer cells in suspension were washed with PBS and loaded with 50 μM H2DCFDA (Molecular Probes, Life Technologies, D399) or 5 μM DAF-2 (Cayman Chemical, Catalog #85165) for 30 min at room temperature in the dark. Cells were washed twice with PBS and treated with various doses of Ivermectin in R10 medium. Cells were incubated for 1h in 5 ml FACS tubes at 37° C. and 5% CO2, and immediately analyzed by flow cytometry. Generation of intracellular ROS and NO results in corresponding increases in the GFP fluorescence of the H2DCFDA and DAF-2 probes, respectively.

Compound: Nc1ncnc2c1ncn2[C@@H]1O[C@H](COP(=O)(O)OP(=O)(O)OP(=O)(O)O)[C@@H](O)[C@H]1O [ATP, adenosine triphosphate]
- CI values (4T1.2 shRNA (NT); ATP 1 + I 6, 24 h): 1.18
- CI values (4T1.2 shRNA (NT); ATP 1 + I 8, 24 h): 1.01
- CI values (4T1.2 shRNA (NT); ATP 1 + I 10, 24 h): 1.24
- CI values (4T1.2 shRNA (NT); ATP 2 + I 6, 24 h): 1.17
- CI values (4T1.2 shRNA (NT); ATP 2 + I 8, 24 h): 1.01
- CI values (4T1.2 shRNA (NT); ATP 2 + I 10, 24 h): 1.10
- CI values (4T1.2 shRNA (NT); ATP 3 + I 6, 24 h): 0.67
- CI values (4T1.2 shRNA (NT); ATP 3 + I 8, 24 h): 0.64
- CI values (4T1.2 shRNA (NT); ATP 3 + I 10, 24 h): 0.63
- CI values (4T1.2 shRNA (P2X7); ATP 1 + I 6, 24 h): 1.49
- CI values (4T1.2 shRNA (P2X7); ATP 1 + I 8, 24 h): 1.39
- CI values (4T1.2 shRNA (P2X7); ATP 1 + I 10, 24 h): 1.35
- CI values (4T1.2 shRNA (P2X7); ATP 2 + I 6, 24 h): 1.18
- CI values (4T1.2 shRNA (P2X7); ATP 2 + I 8, 24 h): 1.03
- CI values (4T1.2 shRNA (P2X7); ATP 2 + I 10, 24 h): 1.11
- CI values (4T1.2 shRNA (P2X7); ATP 3 + I 6, 24 h): 0.96
- CI values (4T1.2 shRNA (P2X7); ATP 3 + I 8, 24 h): 0.91
- CI values (4T1.2 shRNA (P2X7); ATP 3 + I 10, 24 h): 0.86

Compound: CCCCC1(C2CCCC2)Cc2cc(OCCCC(=O)O)c(Cl)c(Cl)c2C1=O (centres unmarked) [DCPIB]
- effect on Ivermectin-induced cell death (4T1.2 cells): exacerbates Ivermectin killing

Compound: COc1cccc2c1C(=O)c1c(O)c3c(c(O)c1C2=O)C[C@@](O)(C(=O)CO)C[C@@H]3O[C@H]1C[C@H](N)[C@H](O)[C@H](C)O1 [DOX, doxorubicin]
- CompuSyn CI values (4T1.2 cancer cells; DOX 1 + Ivermectin 2): .43
- CompuSyn CI values (4T1.2 cancer cells; DOX 1 + Ivermectin 4): .61
- CompuSyn CI values (4T1.2 cancer cells; DOX 2 + Ivermectin 2): .42
- CompuSyn CI values (4T1.2 cancer cells; DOX 2 + Ivermectin 4): .56

Compound: c1ccc2c(c1)[I+]c1ccccc1-2 [DPI, Diphenyleneiodonium]
- effect on Ivermectin-induced cell death (4T1.2 cells): transiently block Ivermectin-induced killing

Compound: C[C@H]1O[C@@H](O[C@H]2[C@@H](O)C[C@H](O[C@H]3[C@@H](O)C[C@H](O[C@H]4CC[C@@]5(C)[C@H](CC[C@@H]6[C@@H]5C[C@@H](O)[C@]5(C)[C@@H](C7=CC(=O)OC7)CC[C@]65O)C4)O[C@@H]3C)O[C@@H]2C)C[C@H](O)[C@@H]1O [Digoxin]
- effect on Ivermectin-induced cell death (4T1.2 cells): demonstrated some protection

Compound: O=C(O)CN(CCN(CC(=O)O)CC(=O)O)CC(=O)O [EDTA]
- effect on Ivermectin-induced cell death (4T1.2 cells): cell death can be suppressed

Compound: N[C@@H](CCC(=O)N[C@@H](CS)C(=O)NCC(=O)O)C(=O)O [GSH]
- effect on Ivermectin-induced cell death (4T1.2 cells): completely failed to prevent, or even delay, Ivermectin-induced killing
- blockade of Ivermectin-induced ROS by ROS scavengers [1]: less effective against Ivermectin-induced ROS

Compound: OO [H2O2]
- CompuSyn CI values (4T1.2 cancer cells; H2O2 100 + Ivermectin 8): .46
- CompuSyn CI values (4T1.2 cancer cells; H2O2 100 + Ivermectin 16): .39
- CompuSyn CI values (4T1.2 cancer cells; H2O2 1000 + Ivermectin 8): .24
- CompuSyn CI values (4T1.2 cancer cells; H2O2 1000 + Ivermectin 16): .20

Compound: CC(=O)N[C@@H](CS)C(=O)O [NAC]
- effect on Ivermectin-induced cell death (4T1.2 cells): completely failed to prevent, or even delay, Ivermectin-induced killing
- blockade of Ivermectin-induced ROS by ROS scavengers [1]: less effective against Ivermectin-induced ROS

Compound: CN1C(=O)C(Cc2c[nH]c3ccccc23)NC1=S (centres unmarked) [Necrostatin]
- effect on Ivermectin-induced cell death (4T1.2 cells): demonstrated some protection

Compound: Nc1ncnc2c1ncn2[C@@H](C=O)O[C@@H](C=O)COP(=O)(O)OP(=O)(O)OP(=O)(O)O [OxATP]
- effect on Ivermectin-induced cell death (4T1.2 cells): did not observe any protection

Compound: Cc1nc(N=Nc2ccc(S(=O)(=O)O)cc2S(=O)(=O)O)c(COP(=O)(O)O)c(C=O)c1O [PPADs]
- effect on Ivermectin-induced cell death (4T1.2 cells): did not observe any protection

Compound: Nc1c(S(=O)(=O)[O-])cc(Nc2ccc(Cl)cc2)c2c1C(=O)c1ccccc1C2=O.[Na+] [PSB 069]
- effect on Ivermectin-induced cell death (4T1.2 cells): Ivermectin-induced cytotoxicity was suppressed

Compound: CC(=O)O[C@H]1C(=O)[C@@]2(C)[C@H]([C@H](OC(=O)c3ccccc3)[C@]3(O)C[C@H](OC(=O)[C@H](O)[C@@H](NC(=O)c4ccccc4)c4ccccc4)C(C)=C1C3(C)C)[C@]1(OC(C)=O)CO[C@@H]1C[C@@H]2O [PTX, paclitaxel]
- CompuSyn CI values (4T1.2 cancer cells; PTX 0.1 + Ivermectin 1): .35
- CompuSyn CI values (4T1.2 cancer cells; PTX 0.1 + Ivermectin 2): .52
- CompuSyn CI values (4T1.2 cancer cells; PTX 1 + Ivermectin 1): .30
- CompuSyn CI values (4T1.2 cancer cells; PTX 1 + Ivermectin 2): .51

Compound: CCCN(CCC)S(=O)(=O)c1ccc(C(=O)O)cc1 [Probenecid]
- effect on Ivermectin-induced cell death (4T1.2 cells): enhanced Ivermectin cytotoxicity

Compound: Cc1ccc(C(=O)Nc2ccc(S(=O)(=O)O)c3cc(S(=O)(=O)O)cc(S(=O)(=O)O)c23)cc1NC(=O)c1cccc(NC(=O)Nc2cccc(C(=O)Nc3cc(C(=O)Nc4ccc(S(=O)(=O)O)c5cc(S(=O)(=O)O)cc(S(=O)(=O)O)c45)ccc3C)c2)c1 [Suramin]
- effect on Ivermectin-induced cell death (4T1.2 cells): Ivermectin killing was initially enhanced

Compound: CCO[C@@H]1OC(=O)C[C@@H]1NC(=O)[C@@H]1CCCN1C(=O)[C@@H](NC(=O)c1ccc(N)c(Cl)c1)C(C)(C)C [VX-765]
- effect on Ivermectin-induced cell death (4T1.2 cells): demonstrated some protection

Compound: COC(=O)C[C@H](NC(=O)[C@H](C)NC(=O)[C@@H](NC(=O)OCc1ccccc1)C(C)C)C(=O)CF [Z-vad-fmk] (Cbz-Val-Ala-Asp(OMe)-CH2F)
- effect on Ivermectin-induced cell death (4T1.2 cells): inhibited cell death very effectively

Compound: Apyrase
- effect on Ivermectin-induced cell death (4T1.2 cells): Ivermectin killing was initially enhanced
